# Source: patent publication EP4623928A1, “GLP-1R ANTAGONISTS FOR THE TREATMENT OF CANCER” (Fiorina, Paolo, priority 2024, dated 2025)
# What was measured:
# [1] = test system: GLP-1R^pos and GLP-1R^neg CD3^+ T cells; assay: Transwell migration assay toward SDF-1, GLP-1Rpos and GLP-1Rneg CD3+ T cells; assay type: cell-based, C57BL/6 mice; details: GLP-1R^neg CD3^+ T cells only, Exe-4 (1 nM), SDF-1 gradient
# Experimental: (§1) Transwell migration assays were performed on GLP-1R^pos and GLP-1R^neg CD3^+ cells or respectively untransduced-mock CD3^+ T cells or pmY-GLP-1R transduced CD3^+ T cells, freshly isolated or activated with anti-CD3/CD28 (0.5 µg /ml each) in the presence or not of Exe-4 (1 nM). Chemotaxis assessments via transwell migration assay were performed using polycarbonate membranes with 5 µm pores (Corning) in accordance with the manufacturer's instructions and as previously published (42). Cells were washed, re-suspended in migration media (RPMI), and added to the upper chamber of the plate, while migration media containing 0 or 50 ng/mL SDF-1 (R&D Systems) was added to the bottom chamber. Treated cells were incubated over night at 37°C to migrate through the polycarbonate membrane into the bottom chamber. Input cell counts were obtained by flow cytometry with a BD FACSCelesta (BD, Biosciences) as well as cell counts of migrated cells in the lower chambers. Migration percentage was calculated as the number of cells in the lower chamber (migrated) compared to total input cell count for three separate wells. Mean migration percentages and standard deviations (SD) were calculated across the different donor cell lots. Analysis of lower chambers without SDF-1 (negative gradients) was used to control for any nonspecific increase in chemotaxis.
# [2] = test system: untransduced-mock and pmY-GLP-1R transduced CD3^+ T cells; assay: Transwell migration assay toward SDF-1, mock and pmY-GLP-1R transduced CD3+ T cells; assay type: cell-based, murine; details: both untransduced-mock and pmY-GLP-1R transduced CD3^+ T cells, Exe-4 (1 nM)
# Experimental: as §1
# islet allografts = assay: Murine islet allotransplantation (BALB/c islets into STZ-treated C57BL/6 mice); assay type: in vivo
# Experimental: Pancreatic islets from BALB/c mice were isolated by collagenase digestion and density gradient separation as previously described (33, 34). Subsequently, four to five hundred islets were inoculated under the renal capsule of each C57BL/6 recipient rendered diabetic with streptozotocin (STZ) (200 mg/kg, administered i.p. Sigma-Aldrich). Islet transplantation success was confirmed by glycaemia normalization. Rejection of islet allografts was defined as blood glucose levels >250 mg/dl for at least 2 consecutive days (35). Treatment modalities were the following: transplanted mice were intraperitoneally injected according to the following protocols: 1) Exendin-4 (Exe-4) (Amylin Pharmaceuticals, San Diego, CA -USA) 0.2pg twice/day for two weeks after transplant; 2) Exe-4 0.2pg twice/day from the day before until two weeks after transplant; 3) Exendin-4 2µg twice/day from the day before until two weeks after transplant; 4) Exendin-4 2µg twice/day + Exendin-9-39 (Exe-9) (Sigma-Aldrich) 2µg twice/day from the day before until two weeks after transplant; 5) Exendin-4 2µg twice/day from the day before until two weeks after transplant + Rapamycin 0.1mg/die for two weeks; 6) saline 0.5ml twice/day for two weeks. The follow-up of the transplanted mice was for 100 days.
# [3] = test system: GLP-1R^pos and GLP-1R^neg CD3^+ T cells; assay: Proliferation, apoptosis and IFN-γ expression of GLP-1Rpos and GLP-1Rneg CD3+ T cells stimulated with anti-CD3/anti-CD28; assay type: cell-based, C57BL/6 mice; details: for proliferation rate: anti-CD3/anti-CD28
# Experimental: FACS analysis was performed with a FACSCelesta (BD Bioscience) on murine splenocytes or on single cells suspension prepared upon collagenase-digestion of grafted organs. We used the following antibodies: APC conjugated Rat anti-mouse CD62L, PE conjugated Rat anti-mouse CD44, PerCp conjugated Rat anti-mouse CD4 or PerCp conjugated Rat anti-mouse CD8, (Biolegend, San Diego, CA, USA), and APC conjugated anti-mouse/human insulin (R&D, Minneapolis, MN - USA). GLP-1R was detected by indirect staining; the primary antibody was purchased from Alomone Lab (Jerusalem, Israel) and variably associated with FITC or APC-conjugated anti-isotype Ab (BD and Biolegend respectively). For intracellular staining, splenocytes were isolated from BL6 mice were incubated with and w/o anti CD3/CD28 used both at 0.5 µg/ml, Exe-4 (0.1nM, 1nM and 10nM) or with Exe-4+Exe-9-39 (0.1nM, 1nM and 10nM). After 24hours incubation, cells were collected, washed and plated in RPMI 10% FBS, then stimulated with 50 ng/ml PMA (Sigma Aldrich), 500 ng/ml ionomycin (Sigma Aldrich) and Golgi Stop as recommended by the manufacturer (BD Biosciences, San Diego, CA, USA) for 4h in a humidified incubator 37°C, 5% CO2. After incubation, cells were collected, washed and stained for surface markers, i.e CD4 BUV737, CD8 BUV395, (BD Biosciences, San Diego, CA, USA) and GLP-1R FITC (Alomone Lab, Jerusalem, Israel). They were further fixed, permeabilized using the BD Cytofix/Cytoperm Kit (BD Biosciences, San Diego, CA, USA), and stained with a mAb against IFN-γ (eBioscience). Finally, CD4^+ GLP-1R^+ IFN-γ^+ and CD8^+ GLP-1R^+ IFN-γ ^+ T cells were assessed by flow cytometry analysis. For the expression of GLP-1R on innate immune cells, the following antibodies were used: CD4 BB700, NK1.1 BV421, CD127 BV605, CD44 PE, GLP-1R FITC/PD1 FITC, Viability Dye BV510 (NKT subset); CD45 BV786, CD3 BB700, NK1.1 BV421, GLP-1R FITC/PD1 FITC, Viability Dye BV510 (NK subset); CD45 BB700, CD11c BV786, CD11b BV421, GLP-1R FITC/PD1 FITC, Viability Dye BV510; CD45 PE-CF594, CD127 BV605, NK1.1 BV421, CD335 BV786, CD49a BV650, CD117 BB700, IL33R PE, IL23R BV711, GLP-1R FITC/PD1 FITC, Viability Dye BV510 (LCs subset). For the determination of the chemokine receptors profile of GLP-1R^+ CD3^+ T cells, the following antibodies were used: GLP-1R FITC, CXCR4 PE, CX3CR1 BV605, CCR2 BV421, CCR5 BV650, CCR7 BV786, CXCR3 BB700, CXCR6 BV711, Viability Dye BV510.
substance,measurement,setting,value
Exendin-4 [Exe-4],migratory potential,[1],reduced
same,migratory ability in response to SDF-1,[2],reduced
same,recipients with prolongation of islet survival up to 100 days,islet allografts; high doses of Exe-4 preceded by a pre-treatment,60%
same,[MST] (islet allograft survival),"islet allografts; high doses of Exe-4 preceded by a pre-treatment (2µg twice/day, i.p.), p<0.001 vs untreated",67 days
same,graft infiltration (Hematoxylin and eosin staining),"islet allografts; islet allograft at day 14, Exe-4-treated mice",decreased graft infiltration
same,recipients with prolongation of islet survival up to 100 days,islet allografts; low dose of Exe-4,20%
same,[MST] (islet allograft survival),"islet allografts; low dose of Exe-4 (b66 prints 0.2pg twice/day, i.p.), untreated [MST]=12 days, p=0.001",41 days
same,CD8^+ effector memory cells,"islet allografts; splenic, Exe-4 treatment",reduction
same,Treg lymphocytes,"islet allografts; splenic, Exe-4 treatment",significant increase
same,proliferation rate,"[3]; GLP-1R^neg CD3^+ T cells, Exe-4 (1 nM)",but not of GLP-1R^neg CD3^+ T cells
same,proliferation rate,"[3]; GLP-1R^pos CD3^+ T cells, Exe-4 (1 nM)",slightly modulated
same,IFN-y expression,"[3]; GLP-1R^pos and GLP-1R^neg CD3^+ T cells, Exe-4 (1 nM)",no evident effect
same,apoptosis (GLP-1R^pos more apoptotic than GLP-1R^neg),"[3]; GLP-1R^pos vs GLP-1R^neg CD3^+ T cells, with or without Exe-4",independently of Exe-4 treatment
